This note sets out measurements from PubChem BioAssay AID256 (DTP/NCI, 2004).

Several values for one entry are separate records, joined by “and”; a condition that tells them apart may be missing. Equal values may be shown once. Inconclusive results and toxic doses are left out.

The subject of this test is CD2F1 mice, L1210 leukemia ip, survival T/C. The experiment in a line: NCI In Vivo Anticancer Drug Screen. Data for tumor model L1210 Leukemia (intraperitoneal) in CD2F1 (CDF1) mice. The conditions noted are these: higher = longer survival. The gist of the method: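 Compound-dosed mice with transplantable tumor versus matched vehicle controls; endpoint ratio T/C reported.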

Where [1] appears, read: endpoint: mean survival time, dose: 100.0 mg/kg/injection, schedule: Q01DX009 (ip), vehicle: saline with Tween-80.
Where [2] appears, read: endpoint: mean survival time, dose: 200.0 mg/kg/injection, schedule: Q01DX009 (ip), vehicle: saline with Tween-80.
[3] abbreviates: endpoint: mean survival time, dose: 25.0 mg/kg/injection, schedule: Q04DX003 (ip), vehicle: saline.
The mark [4] stands for this setting: endpoint: mean survival time, dose: 50.0 mg/kg/injection, schedule: Q04DX003 (ip), vehicle: saline.
The mark [5] stands for this setting: endpoint: mean survival time, dose: 100.0 mg/kg/injection, schedule: Q04DX003 (ip), vehicle: saline.
The mark [6] stands for this setting: endpoint: mean survival time, dose: 200.0 mg/kg/injection, schedule: Q04DX003 (ip), vehicle: saline.
Where [7] appears, read: endpoint: mean survival time, dose: 400.0 mg/kg/injection, schedule: Q04DX003 (ip), vehicle: saline.
Where [8] appears, read: endpoint: mean survival time, dose: 100.0 mg/kg/injection, schedule: Q04DX003 (ip), vehicle: saline with Tween-80.
Where [9] appears, read: endpoint: mean survival time, dose: 200.0 mg/kg/injection, schedule: Q04DX003 (ip), vehicle: saline with Tween-80.
Setting [10] is: endpoint: mean survival time, dose: 400.0 mg/kg/injection, schedule: Q04DX003 (ip), vehicle: saline with Tween-80.

As for `C[As](C)SCC1OC(n2ccc(=O)[nH]c2=O)CC1O` (configuration not stated), the T/C runs as follows: (endpoint: median survival time, dose: 12.5 mg/kg/injection, schedule: Q01DX005 (ip), vehicle: distilled water + Tween-80) 97 % of control; (endpoint: median survival time, dose: 25.0 mg/kg/injection, schedule: Q01DX005 (ip), vehicle: distilled water + Tween-80) 104 % of control; (endpoint: median survival time, dose: 50.0 mg/kg/injection, schedule: Q01DX005 (ip), vehicle: distilled water + Tween-80) 106 % of control; (endpoint: median survival time, dose: 100.0 mg/kg/injection, schedule: Q01DX005 (ip), vehicle: distilled water + Tween-80) 109 % of control.
In the case of `BrCc1c2ccccc2c(CBr)c2c1ccc1ccccc12`, the T/C was 105 % of control (endpoint: mean survival time, dose: 25.0 mg/kg/injection, schedule: Q04DX002 (ip), vehicle: carboxymethylcellulose (CMC)); 117 % of control (endpoint: mean survival time, dose: 50.0 mg/kg/injection, schedule: Q04DX002 (ip), vehicle: carboxymethylcellulose (CMC)); 97 % of control (endpoint: mean survival time, dose: 100.0 mg/kg/injection, schedule: Q04DX002 (ip), vehicle: Klucel (hydroxypropylcellulose) (HPC)); 113 % of control (endpoint: mean survival time, dose: 100.0 mg/kg/injection, schedule: Q04DX002 (ip), vehicle: carboxymethylcellulose (CMC)); 117 % of control (endpoint: mean survival time, dose: 200.0 mg/kg/injection, schedule: Q04DX002 (ip), vehicle: Klucel (hydroxypropylcellulose) (HPC)).
As for `CCCCCCCCCCCCCCCCC1CCCC1C1CCCC1` (configuration not stated), the T/C is, setting by setting: (endpoint: mean survival time, dose: 100.0 mg/kg/injection, schedule: Q01DX001 (ip), vehicle: saline sonified) 102 % of control; (endpoint: mean survival time, dose: 200.0 mg/kg/injection, schedule: Q01DX001 (ip), vehicle: saline sonified) 101 % of control; (endpoint: mean survival time, dose: 400.0 mg/kg/injection, schedule: Q01DX001 (ip), vehicle: saline sonified) 96 % of control.
`Nc1ncnc2c1nc(Cl)n2C1OC2COP(=O)(O)OC2C1O` (configuration not stated): the T/C reads like this: (endpoint: mean survival time, dose: 12.5 mg/kg/injection, schedule: Q01DX005 (ip), vehicle: water) 96 % of control; (endpoint: mean survival time, dose: 25.0 mg/kg/injection, schedule: Q01DX005 (ip), vehicle: water) 100 % of control; (endpoint: mean survival time, dose: 50.0 mg/kg/injection, schedule: Q01DX005 (ip), vehicle: water) 100 % of control.
On to `Cc1cc2[nH]c(=O)[nH]c2cc1C`, for which the T/C was 103 % of control (endpoint: mean survival time, dose: 50.0 mg/kg/injection, schedule: Q01DX009 (ip), vehicle: saline with Tween-80); 94 % of control under setting [1]; 102 % of control under setting [2].
In the case of `CCN(CC)CCCC(C)Nc1ncnc(N)c1[N+](=O)[O-]` (configuration not stated), the T/C is 103 % of control (endpoint: mean survival time, dose: 25.0 mg/kg/injection, schedule: Q01DX009 (ip), vehicle: saline); 106 % of control under setting [3]; 92 % of control (endpoint: mean survival time, dose: 50.0 mg/kg/injection, schedule: Q01DX009 (ip), vehicle: saline); 111 % of control under setting [4]; 95 % of control (endpoint: mean survival time, dose: 100.0 mg/kg/injection, schedule: Q01DX009 (ip), vehicle: saline); 104 % of control under setting [5].
On to `CC(C)C(=O)OCCOC(=O)C(C)C`, for which the T/C runs as follows: under setting [5], 100 % of control; under setting [6], 97 % of control; under setting [7], 96 % of control.
As to `O=C(O)C(O)C(O)C(O)C(O)CO.O=C(O)C(O)C(O)C(O)C(O)CO.[NH-]C1CCCCC1[NH-].[Pt+2]` (configuration not stated), the T/C reads like this: (endpoint: mean survival time, dose: 3.13 mg/kg/injection, schedule: Q04DX003 (ip), vehicle: other) 123 % of control; (endpoint: mean survival time, dose: 6.25 mg/kg/injection, schedule: Q04DX003 (ip), vehicle: saline) 119 % of control; (endpoint: mean survival time, dose: 12.5 mg/kg/injection, schedule: Q04DX003 (ip), vehicle: saline) 166 % of control; (endpoint: mean survival time, dose: 25.0 mg/kg/injection, schedule: Q04DX003 (ip), vehicle: other) 162 % of control; under setting [3], 304 % of control; (endpoint: mean survival time, dose: 50.0 mg/kg/injection, schedule: Q04DX003 (ip), vehicle: other) 231 % of control. The T/C runs as follows: under setting [4], 281 % of control and 225 % of control; under setting [5], 306 % of control and 280 % of control.
In the case of `CC(=O)N1CCCCC1C/C(C)=N/O` (configuration not stated), the T/C under setting [8] was 105 % of control, the T/C under setting [9] was 95 % of control and the T/C under setting [10] was 109 % of control.
On to `C/C=C(\NC1CCCCC1)C(=O)c1ccccc1`, for which the T/C is, setting by setting: (endpoint: mean survival time, dose: 100.0 mg/kg/injection, schedule: Q01DX009 (ip), vehicle: Klucel (hydroxypropylcellulose) (HPC)) 100 % of control; (endpoint: mean survival time, dose: 100.0 mg/kg/injection, schedule: Q04DX003 (ip), vehicle: Klucel (hydroxypropylcellulose) (HPC)) 101 % of control; (endpoint: mean survival time, dose: 200.0 mg/kg/injection, schedule: Q01DX009 (ip), vehicle: Klucel (hydroxypropylcellulose) (HPC)) 109 % of control; (endpoint: mean survival time, dose: 200.0 mg/kg/injection, schedule: Q04DX003 (ip), vehicle: Klucel (hydroxypropylcellulose) (HPC)) 100 % of control; (endpoint: mean survival time, dose: 400.0 mg/kg/injection, schedule: Q04DX003 (ip), vehicle: Klucel (hydroxypropylcellulose) (HPC)) 97 % of control.
For the compound `COC1/C=C\C=C(/C)C(=O)NC2=CC(=O)C=C(C2=O)C(OC)C(C)CC(OC)C(OC)C(C)/C=C(/C)C1OC(N)=O` (configuration not stated), the T/C reads like this: (endpoint: mean survival time, dose: 0.18 mg/kg/injection, schedule: Q01DX009 (ip), vehicle: Klucel (hydroxypropylcellulose) (HPC)) 108 % of control; (endpoint: mean survival time, dose: 0.37 mg/kg/injection, schedule: Q01DX009 (ip), vehicle: Klucel (hydroxypropylcellulose) (HPC)) 107 % of control; (endpoint: mean survival time, dose: 0.75 mg/kg/injection, schedule: Q01DX009 (ip), vehicle: Klucel (hydroxypropylcellulose) (HPC)) 120 % of control and 98 % of control; (endpoint: mean survival time, dose: 1.5 mg/kg/injection, schedule: Q01DX009 (ip), vehicle: Klucel (hydroxypropylcellulose) (HPC)) 93 % of control and 103 % of control; (endpoint: mean survival time, dose: 3.0 mg/kg/injection, schedule: Q01DX009 (ip), vehicle: Klucel (hydroxypropylcellulose) (HPC)) 95 % of control and 105 % of control.
Take `CC(=O)c1ccc(N=NNc2ccc(C(C)=O)cc2)cc1`: the T/C (endpoint: mean survival time, dose: 100.0 mg/kg/injection, schedule: Q01DX001 (ip), vehicle: saline with Tween-80) was 103 % of control; the T/C under setting [1] is 96 % of control; the T/C (endpoint: mean survival time, dose: 200.0 mg/kg/injection, schedule: Q01DX001 (ip), vehicle: saline with Tween-80) is 95 % of control; the T/C under setting [2] is 95 % of control; the T/C (endpoint: mean survival time, dose: 400.0 mg/kg/injection, schedule: Q01DX001 (ip), vehicle: saline with Tween-80) is 95 % of control.
Consider `O=C1C=CC(=Nc2ccc(O)cc2)O1`, for which the T/C is 100 % of control (endpoint: mean survival time, dose: 5.0 mg/kg/injection, schedule: Q01DX009 (ip), vehicle: saline with Tween-80); 94 % of control (endpoint: mean survival time, dose: 10.0 mg/kg/injection, schedule: Q01DX009 (ip), vehicle: saline with Tween-80); 104 % of control (endpoint: mean survival time, dose: 20.0 mg/kg/injection, schedule: Q01DX009 (ip), vehicle: saline with Tween-80).
With `CC12CS(=O)(=O)CC1O2` (configuration not stated), the T/C by setting is: under setting [8], 101 % of control; under setting [9], 96 % of control; under setting [10], 101 % of control.
Consider `NNC(=S)S`, for which the T/C was 96 % of control (endpoint: mean survival time, dose: 5.0 mg/kg/injection, schedule: Q01DX001 (ip), vehicle: saline) and 98 % of control (endpoint: mean survival time, dose: 10.0 mg/kg/injection, schedule: Q01DX001 (ip), vehicle: saline).
As for `Nc1nc2c(ncn2CCCCc2ccccc2)c(=O)[nH]1`, the T/C by setting is: (endpoint: mean survival time, dose: 100.0 mg/kg/injection, schedule: Q04DX002 (ip), vehicle: saline with Tween-80) 94 % of control; (endpoint: mean survival time, dose: 200.0 mg/kg/injection, schedule: Q04DX002 (ip), vehicle: saline with Tween-80) 94 % of control; (endpoint: mean survival time, dose: 400.0 mg/kg/injection, schedule: Q04DX002 (ip), vehicle: saline with Tween-80) 94 % of control.
Take `CNC(=O)OCCN(C)OC`: the T/C was 95 % of control under setting [5], 98 % of control under setting [6] and 93 % of control under setting [7].
